Measured values reported in patent US20050255041A1, “Cancerous disease modifying antibodies” (Arius Research, Inc., priority 2004, published 2005).
Like-named read-outs stand apart in the source and are kept apart here.

Legend:
[1] = Live/Dead cytotoxicity assay, hybridoma supernatant; type: cell-based; settings: human, hybridoma supernatant (or cycloheximide positive control), calcein
Procedure: Three human breast cancer cell lines were tested: MDA-MB-231, MDA-MB-468 and SKBR-3. […] The wells that served as the positive controls were aspirated until empty and 100 μL of sodium azide (NaN3) or cycloheximide was added. After 5 days of treatment, the plates were then emptied by inverting and blotting dry. […] The AR2A72.10 hybridoma produced specific cytotoxicity of 15,27 and 44 percent in MDA-MB-231, MDA-MB-468 and SKBR-3 cells respectively. The known non-specific cytotoxic agent cycloheximide produced cytotoxicity as expected given the limitations of in vitro biological assays.

Hs888 Lu = settings: 5 days; AR2A72.10 and AR3BD-26 20 μg/mL, anti-fas and anti-Her2/neu 10 μg/mL, anti-EGFR 5 μg/mL, cycloheximide 0.5 μM, NaN3 0.1%
Procedure: Antibodies were tested against a panel of ovarian cancer, and normal cell lines. Two ovarian cancer (OVCAR-3, Sk-OV-3) and non-cancer (CCD-27sk, Hs888.Lu) cell lines were obtained from the ATCC, Manassas, Va. A2780-cp, A2780-s, C-13, OV2008, ES-2, Hey, OCC-1, OVCA-429 were obtained from the Ottawa Regional Cancer Center (Ottawa, ON). The Live/Dead cytotoxicity assay was obtained from Molecular Probes (Eugene, Oreg.). The assays were performed according to the manufacturer's instructions with the changes outlined below. Cells were plated before the assay at the predetermined appropriate density. After 2 days, purified antibody or controls were diluted into media, and then 100 microliters were transferred to the cell plates and incubated in a 5 percent CO2 incubator for 5 days. The plate was then emptied by inverting and blotted dry. Room temperature DPBS containing MgCl2 and CaCl2 was dispensed into each well from a multi-channel squeeze bottle, tapped three times, emptied by inversion and then blotted dry. 50 microliters of the fluorescent calcein dye diluted in DPBS containing MgCl2 and CaCl2 was added to each well and incubated at 37° C. in a 5 percent CO2 incubator for 30 minutes. […]

## C[C@@H]1C[C@@H]([C@H](O)CC2CC(=O)NC(=O)C2)C(=O)[C@@H](C)C1 [Cycloheximide]
[1]; read-out: Cytotoxicity (%) MDA-MB-231 Average
  cytotoxicity at 5 days: 49%
[1]; read-out: Cytotoxicity (%) MDA-MB-468 Average
  cytotoxicity at 5 days: 24%
[1]; read-out: Cytotoxicity (%) SKBR-3 Average
  cytotoxicity at 5 days: 56%

## [N-]=[N+]=[N-] [NaN3, sodium azide]
Hs888 Lu
  In vitro cytotoxicity, Hs888 Lu (normal): +++ (4/4 experiments greater than threshold cytotoxicity)
